The target in experiment [1] is T1, C. glutamicum MetA (Corynebacterium glutamicum, UniProt O68640).
T1 construct: contain both endogenous and episomal C. glutamicum MetA and MetY genes; expressed in transfected cells; host or cells: C. glutamicum MA-442 (plasmid MB-4135, metA-metY) and MA-449 (MB-4138, metY-metA), both MA-428 / ATCC 13032 derivatives; crude protein extract
Description: MetA (in vitro O-acetyltransferase) activity in crude protein extracts, C. glutamicum MetA. It is filed as biochemical.
Description: MetA activity in C. glutamicum expressing endogenous and episomal metA genes was determined. MetA activity was assayed in crude protein extracts using a protocol described by Kredich and Tomkins (J. Biol. Chem.241(21): 4955-4965, 1966). […] Briefly, 1 μg of protein extract was added to a microtiter plate. Reaction mix (250 μl; 100 mM tris-HCl pH 7.5, 2 mM 5,5′-Dithiobis(2-nitrobenzoic acid) (DTN), 2 mM sodium EDTA, 2 mM acetyl CoA, 2 mM homoserine) was added to each well of the microtiter plate. In the course of the reactions, MetA activity liberates CoA from acetyl-CoA. A disulfide interchange occurs between the CoA and DTN to produce thionitrobenzoic acid. The production of thionitrobenzoic acid is followed spectrophotometrically. Absorbance at 412 nm was measured every 5 minutes over a period of 30 minutes. A well without protein extract was included as a control. […] Inhibitors were added directly to the reaction mix before it was added to the protein extract.
Experiments were performed in the presence and absence of IPTG that induces expression of the plasmid borne MetA and MetY genes.

Experiment [2] has as its system O-Acetylhomoserine sulfhydrylase (MetY). The settings on record: grown in the presence of 0.5 mM methionine; cited from earlier work.

Consider two compounds from patent publication US20070026505A1, “Amino acid and metabolite biosynthesis” (priority 2005, published 2007).

T1 sequence (O68640 whole entry): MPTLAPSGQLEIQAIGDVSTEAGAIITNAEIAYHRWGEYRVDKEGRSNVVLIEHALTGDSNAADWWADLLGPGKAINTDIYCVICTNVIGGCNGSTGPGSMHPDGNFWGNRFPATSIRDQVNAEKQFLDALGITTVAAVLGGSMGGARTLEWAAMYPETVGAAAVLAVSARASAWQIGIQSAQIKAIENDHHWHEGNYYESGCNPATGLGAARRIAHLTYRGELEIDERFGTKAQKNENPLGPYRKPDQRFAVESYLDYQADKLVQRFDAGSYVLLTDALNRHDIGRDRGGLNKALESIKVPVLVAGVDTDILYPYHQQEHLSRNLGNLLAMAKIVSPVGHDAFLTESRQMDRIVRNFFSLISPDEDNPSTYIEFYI

As for `C[S+](CC[C@H](N)C(=O)[O-])C[C@H]1O[C@@H](n2cnc3c(N)ncnc32)[C@H](O)[C@@H]1O` (stereo partly drawn) [S-AM, S-adenosyl methionine], the “MetA activity of MA-442 extracts in presence of S-AM” value in experiment [1] (0.2 mM S-AM) is “reduced”. In the case of `CSCC[C@H](N)C(=O)O` [methionine], the “MetA activity of MA-442 extracts in presence of methionine” value in experiment [1] (5 mM methionine) is on record as “reduced”. The “reduction in MetY enzyme activity” value in experiment [2] is 99%.
